“Also recorded” adds a separate entry of the source.
Columns and labels:
HBB locus = test: HDR (E7V) editing in mouse bone marrow 16 weeks post-administration, NGS; format: in vivo, mice; details: for levels of gene-editing in the HBB locus in bone marrow: AAV.304, FIG. 26B
Method: Maintenance of gene-editing was evaluated in mouse bone marrow collected at 16 weeks post-administration of LT-HSPCs. Incorporation of a sickle mutation (E7V) in the HBB locus was evaluated in DNA isolated from mouse bone marrow samples using the next generation sequencing assay described in Example 4. Shown in FIG. 19 is a comparison of HDR efficiency for LT-HSPCs edited either with or without i53. LT-HSPCs were electroporated with Cas9/gRNA and treated with AAV. […] LT-HSPCs edited in the presence of i53 had 1.8-fold higher HDR frequency in the bone marrow compared to cells edited with AAV+RNP alone.
Maintenance of gene-editing was evaluated in mouse bone marrow collected at 16 weeks post-administration of LT-HSPCs. Incorporation of a sickle mutation (E7V) in the HBB locus was evaluated in DNA isolated from mouse bone marrow samples using the next generation sequencing assay described in Example 4. […] LT-HSPCs were electroporated with Cas9/gRNA and treated with AAV prior to electroporation or following electroporation. Incorporation of the gene-edit in bone marrow samples was similar for LT-HSPCs edited with RNP and AAV given either pre-EP or post-EP. Additionally, incorporation of the gene edit in the HBB locus by HDR was compared for LT-HSPCs edited in the presence of i53 or Nu7441 (FIG. 26B).

[1] = tested on: HBB locus in CD34-expressing LT-HSPCs; test: HDR incorporation of sickle (E7V) edit at HBB locus in vitro, NGS assay; format: cell-based, human; details: for incorporation of the E7V gene edit: 1 μg mRNA encoding i53
Text: The cells were electroporated with 1 g mRNA encoding i53.

[2] = tested on: HBB locus in CD34-expressing LT-HSPCs; test: HDR insertion of AAV GFP donor at HBB locus (GFP fluorescence); format: cell-based, human; details: for HDR efficiency: 0.75 g mRNA encoding i53, 5 μM Nu7441, DM control mRNA, FIG. 6C
Method: Frozen CD34-expressing LT-HSPCs derived from plerixafor (i.e., Mozibil®)+GCSF-dual mobilized peripheral blood obtained from healthy human donors were purchased from a commercial vendor. LT-HSPCs were maintained in culture media comprised of the reagents shown in Table 4 and were incubated at 37° C., 5% carbon dioxide, 4% oxygen. […] 2×10^5 cells were edited with 3 g Cas9 and 3 g gRNA. The target gene sequence (including target sequence with PAM), R02 spacer sequence, and R02 sgRNA sequence are identified in Table 3.
The cells were transfected with a dsDNA homology donor encoding GFP under a SFFV promoter (SEQ ID NO: 60) that was delivered by AAV (SEQ ID NO: 56). […] The HDR efficiency was determined by measuring the level of GFP fluorescence in the cells following electroporation. To determine the effect of 53BP1 inhibition on HDR efficiency, the 53BP1 inhibitor i53 was introduced as an mRNA-encoded protein to the cells during electroporation with Cas9/gRNA RNP and AAV DNA that serves as a donor for homology directed repair.
The effect of 53BP1 inhibition on HDR efficiency was compared to other mRNA-encoded proteins that inhibit the NHEJ pathway. These included the proteins CYREN1 and CYREN2 that inhibit Ku70/80, a heterodimer that binds DNA blunt ends to prevent processing of 3′ single-stranded DNA tails necessary for HDR repair. Cells were electroporated with RNP, an AAV-GFP homology donor and mRNA encoding either i53 (mRNA ORF shown in SEQ ID NO: 69), CYREN1, or CYREN2.
The effect of treatment with i53 and Nu7441 was compared for improving efficiency of HDR repair of the HBB locus. Cells were treated with different doses of Nu7441 or with mRNA encoding i53 (ORF shown by SEQ ID NO: 69).

[3] = tested on: HBB gene locus in CD34-expressing LT-HSPCs; test: HDR efficiency at HBB gene with R02 RNP+AAV.307 and DNA-PK inhibitors, NGS; format: cell-based, human; details: 1 μg i53 mRNA; R02 RNP+AAV.307
Method: (§1) Editing was performed as described above. However, the cells were electroporated with AAV.307 administered 1 hour prior to electroporation at a dose of 10,000 MOI. The cells were electroporated with compound 296 at a concentration ranging from 0.005 μM to 10 μM, with compound 984 at a concentration ranging from 0.005 μM to […], or with 1 μg i53 mRNA. Negative control cells were electroporated with RNP+AAV only or RNP only.
(§2) Edited cells were evaluated for viability as described above, and for incorporation of gene-edits at 2 days post-electroporation. […] The frequency of INDELs induced at the R02 cut site was also evaluated by NGS analysis.

[4] = tested on: HBB gene in CD34-expressing LT-HSPCs derived from human patients with sickle cell disease; test: Correction of sickle mutation (E6V to E6) by HDR in SCD patient-derived LT-HSPCs, NGS; format: cell-based; design: dose or concentration left out as unconfirmed; details: R02 RNP+AAV.323 + i53 mRNA; FIG. 30A, 32B
Text: The AAV-encoded homology donor used for correction is referred to as “AAV.323” and is identified by sequence in Table 8.

[5] = tested on: AAVS1 locus in hTERT RPE-1 cells; test: HDR insertion of AAV GFP donor at AAVS1 locus in hTERT RPE-1 cells; format: cell-based, human; details: mRNA encoding i53; AAV 25,000 MOI; FIG. 7
Method: RPE1 cells were lipofected with RNP comprised of Cas9 protein and gRNA targeting the AAVS1 locus (target sequence shown in SEQ ID NO: 3; spacer sequence shown in SEQ ID NO: 4). Cells were edited with 1 g Cas9 and 1 g gRNA. Cells were infected with AAV containing homology donor DNA encoding GFP (DJ serotype) as well as mRNA encoding i53 (mRNA ORF shown in SEQ ID NO: 69). […] HDR efficiency was determined by measuring the level of GFP fluorescence in the cells following gene-editing.

[6] = tested on: HBB gene locus in CD34-expressing LT-HSPCs; test: INDEL frequency and species at R02 cut site with DNA-PK inhibitors, NGS; format: cell-based, human; details: 1 μg i53 mRNA; R02 RNP+AAV.307
Method: as §1, §2
The INDELs species identified for cells edited in Experiment 2 were further evaluated to determine frequency of repair by NHEJ or MMEJ repair pathways. An INDEL of 1 nt was considered due to NHEJ repair; a deletion of −9 nt was considered due to MMEJ repair based on the microhomology present on either side of the R02 cut site. Based on percentage of total reads corresponding to these INDEL species, the ratio of gene edits due to NHEJ and MMEJ repair was evaluated.

Compound | levels of gene-editing in the HBB locus in bone marrow (HBB locus) | HDR efficiency over RNP+AAV alone ([1]; 5 μM Nu7441, pre-EP AAV.304, FIG. 22B) | HDR efficiency [2] | HDR frequency in bone marrow, fold higher than AAV+RNP alone (HBB locus; AAV.307, FIG. 19) | incorporation of the gene edit by HDR in bone marrow (HBB locus; AAV.307, i53, FIG. 19) | level of HDR repair [3] | incorporation of the E7V gene edit ([1]; pre-EP AAV.304, FIG. 22B) | incorporation of the E7V gene edit ([1]; AAV.307 + Cas9/R02 RNP, FIG. 10) | cells incorporating the sickle cell gene-edit ([1]; LT-HSPCs mobilized by Mozobil alone, i53, FIG. 12B) | HDR efficiency, fold increase over RNP+AAV alone ([1]; LT-HSPCs mobilized by Mozobil+GCSF, FIG. 12A) | incorporation of the sickle cell gene-edit by HDR ([1]; LT-HSPCs mobilized by Mozobil+GCSF, i53, FIG. 12A) | incorporation of the E6V→E6 gene correction by HDR [4] | HDR efficiency over AAV alone [5] | frequency of INDELs relative to control cells [6] | HDR efficiency vs RNP+AAV-only ([2]; i53 mRNA 0.5, 1, 2 g (FIG. 6A) or 0.3 g, 1 g (FIG. 6B), CYREN1 or CYREN2 mRNA, any dose of XL413 (data not shown)) | HDR efficiency, fold increase over RNP+AAV-only ([2]; mRNA encoding i53, AAV GFP donor 5,000 MOI, FIG. 6A)
O=c1cc(N2CCOCC2)oc2c(-c3cccc4c3sc3ccccc34)cccc12 [Nu7441] | comparable to AAV+RNP alone | no improvement of HDR efficiency | comparable increase in HDR efficiency |  |  |  |  |  |  |  |  |  |  |  |  | 
i53: polypeptide inhibitor of 53BP1 (SEQ ID NO: 70), delivered as mRNA (ORF SEQ ID NO: 69) | substantially higher than AAV+RNP alone |  | comparable increase in HDR efficiency | 1.8 fold | 65% | 59% | 58% | 68% | approximately 70% | approximately 1.5 fold | approximately 60% | 66% | increase in HDR efficiency | reduced frequency of INDELs | improved HDR efficiency; also recorded: increased HDR efficiency | approximately 1.3 fold

Reference: US12653860B2, “Compositions and methods for editing beta-globin for treatment of hemaglobinopathies” (Vertex Pharmaceuticals Incorporated, priority 2019, dated 2026)
